Data set [1] relates to TNF-a suppressed t-PA mRNA in HUVECs. As to the kind of experiment: TNF-alpha suppression of t-PA mRNA in HUVEC: anti-inflammatory substances versus Givinostat. The following applies: HUVEC, TNF-a 1 h then substance; ASA 1 mM, IBU 1 mM. It counts as cell-based, human. On the procedure: HUVECs were treated with TNF-alpha (TNF-a) for 1 h and then optimal concentrations of the anti.inflammatory substances acetylsalicylic acid (ASA, 1 mM) and ibuprofen (IBU, 1 mM) was added. Givinostat was also added to the cells for comparison. Cells were harvested and t-PA mRNA levels analysed according to example 1.

For another data set, the system named is t-PA mRNA in HUVECs. As to the kind of experiment: C100: dose giving a 100% increase of t-PA mRNA in HUVEC (24 h). It counts as cell-based, human. On the procedure:
HUVECs are treated with different concentrations of first generation hydroxamates (TSA), second generation hydroxamates (Givinostat, Vorinostat, Belinostat, Panobinostat, SB939, PCI24781), benzamides (Mocetinostat, Entinostat) or short chain fatty acids (SCFA, Butyrate, Phenylbutyrate) for 24 h and t-PA mRNA was measured. The doses giving a 100% increase of t-PA mRNA (C100) was determined and compared to the maximum plasma concentration (Cmax) achieved when the maximum tolerated dose (MTD) of each substance is administered to humans, by dividing the C100 with the Cmax. […] In the table below the values for MTD and Cmax are from the following references (mentioned in the same order as in the table): Steele, N. L. et al Cancer Chemother Pharmacol 67(6):1273-9 (2011), Kelly, K. K. et al J Clin Oncol 23:3923-3931 (2005), Furlan, A. et al Mol Med 17(5-6) 353-362 (2011), Fukutomi, A. et al Invest New Drugs 2011 Apr. 12, Yong, W. P. et al Ann Oncol 22(11) 2516-22 (2011), Garcia-Manero, G. et al. Blood 112: 981-989 (2008), Ryan, Q. C. et al J Clin Oncol 23(17): 3912-3922 (2005), Edelman, M. J. et al Cancer Chemother Pharmacol 51: 439-444, http://www.drugs.com/pro/buphenyl.html *Butyrate was administered in the prodrug form tributyrin.

The conditions of data set [2]: cited from earlier work; for Cmax / Cmax (ng/ml): maximum plasma concentration when the MTD is administered to humans.
The test system of data set [3] is t-PA mRNA expression in human umbilical vein endothelial cells (HUVECs). Kind of data set: In vitro dose response: t-PA mRNA (and protein) expression in HUVEC after 24 h. It is filed as cell-based. How it is done:
Human umbilical vein endothelial cells (HUVECs) were prepared by collagenase treatment of fresh umbilical cords (Jaffe, E. A., et al. J Clin Invest 52, 2745-2756 (1973)) obtained from the maternity ward of the Sahlgrenska University hospital, Gotheburg, Sweden. Cells were cultured in EGM-2 medium (Lonza, Basel, Switzerland) and all experiments were performed in passage 1 of subcultivation. Confluent HUVECs were exposed to 10 nM-10 μM of Vorinostat (Selleck Chemicals, Houston, Tex., USA) in complete medium for 24 h. After 24 h, cells and conditioned media were harvested.
Total RNA was prepared using RNeasy Mini RNA kit (Qiagen, Hilden, Germany) and genomic DNA was removed using RNase-free DNase I set (Qiagen). Levels of t-PA mRNA were analyzed with real-time RT-PCR, performed on an Applied Biosystems 7500 Fast Real-Time PCR System using cDNA and Taqman reagents obtained from Applied Biosystems (Foster City, Calif., USA). Hypoxanthine phosphoribosyl transferase (HPRT, Assay number Hs99999909_m1, Applied Biosystems) was used as endogenous internal standard.
Endothelial cells in culture are known to constitutively secrete the majority of synthesized t-PA making conditioned media a suitable source for quantification of t-PA protein. Conditioned medium from cell cultures was collected, centrifuged (10 000×g, 10 min, 4° C.) to remove cell debris, transferred to fresh tubes and stored at −70° C. Concentrations of t-PA antigen in conditioned media were determined using the commercially available TriniLize t-PA antigen ELISA (Trinity Biotech, Bray, Ireland) according to manufacturer's protocol.

The subject of data set [4] is t-PA production in endothelial cells. The settings on record: Arts et al 1995; cited from earlier work.

Where two headings read alike, the source gives them in different places.

Regarding `CC(=O)Oc1ccccc1C(=O)O` [ASA, acetylsalicylic acid], in data set [1], the “effect on TNF-a mediated suppression of t-PA expression” value (shortened to “effect on TNF-a mediated suppression”) was “not counteracted”.

One may read the Cmax as the maximum level reached in the sampled fluid or tissue. With `CCCC(=O)O` [Butyrate], the “C100 tPA (μM)” value in the data set on t-PA mRNA in HUVECs was found to be 100 µM. The MTD in data set [2] (humans, literature, butyrate administered in the prodrug form tributyrin) is listed as 200 mg/kg t.i.d. The Cmax in data set [2] (butyrate as prodrug tributyrin) was 100 µM.

Regarding `Nc1ccccc1NC(=O)c1ccc(CNC(=O)OCc2cccnc2)cc1` [Entinostat], the “C100 tPA” value in the data set with t-PA mRNA in HUVECs was 0.3 µM. In addition, in data set [2], the Cmax is 0.12 µM and the “Cmax (ng/ml)” value was 45 ng/mL.

In the case of `CC(C)Cc1ccc(C(C)C(=O)O)cc1` (centres unmarked) [IBU, ibuprofen], the “effect on TNF-a mediated suppression” value in data set [1] is listed as “not counteracted”.

With `CCCCc1nc2cc(/C=C/C(=O)NO)ccc2n1CCN(CC)CC` [SB939, (2E)-3-{2-butyl-1-[2-(diethylamino)ethyl]-1H-benzimidazol-5-yl}-N-hydroxyacrylamide], in data set [3], the “concentration at which a significant increase of t-PA mRNA levels was seen” value is 30 nM, the “concentration of maximal effect on t-PA expression” value is on record as “around 1 μM” and the “increase of t-PA expression at maximal effect” value was “approximately 10 times”. The “C100 tPA” value in the data set with t-PA mRNA in HUVECs is 0.05 µM. For the same compound, the MTD in data set [2] (humans, literature) is given as 80 mg. In addition, in data set [2], the Cmax was 1.1 µM and the “Cmax (ng/ml)” value was approximately 400 ng/mL. Further, the MTD in data set [2] (once daily, oncology treatment or trials) was 60 mg once daily.

For `CC(/C=C/C(=O)NO)=C\[C@@H](C)C(=O)c1ccc(N(C)C)cc1` [Trichostatin A, trichostatin A], the “t-PA production in endothelial cells” value in data set [4] is listed as “increased”.

For the compound `CC(=O)Oc1ccccc1C(=O)O` [aspirin], in data set [1], the “effect on TNF-a mediated suppression” value is “unable to reverse”.

For the compound `CC(C)Cc1ccc(C(C)C(=O)O)cc1` (centres unmarked) [ibuprofen], in data set [1], the “effect on TNF-a mediated suppression” value is listed as “unable to reverse”.

With Phenylbutyrate, the “C100 tPA (μM)” value in the data set on t-PA mRNA in HUVECs is 1300 µM. The MTD in data set [2] (humans, literature) was 5000 mg. Besides, the Cmax in data set [2] (butyrate as prodrug tributyrin) was 1100 µM. The “Cmax (ng/ml)” value in data set [2] was 218 000 ng/ml.

Source of the values: US20230094176A1, “COMPOUNDS AND METHODS FOR IMPROVING IMPAIRED ENDOGENOUS FIBRINOLYSIS USING HISTONE DEACETYLASE INHIBITORS” (Cereno Scientific AB, priority 2011, published 2023).
